# Results from PMC3438292 (Journal of medicinal chemistry, 2010).
# System: 5-HT2B receptor
# Experiment: not given
# Conditions: cited from earlier work
row,Compound,activation of 5-HT2B receptors
1,CCCN1C[C@H](CSC)C[C@@H]2c3cccc4[nH]cc(c34)C[C@H]21 [Pergolide],potently activate
2,CC[C@@H](CO)NC(=O)[C@@H]1C=C2c3cccc4[nH]cc(c34)C[C@H]2N(C)C1 [Methylergonovine],potently activate
3,CC(N)Cc1cccc(C(F)(F)F)c1 (stereo not drawn) [norfenfluramine],potently activate
4,CN1C[C@H](C(=O)N[C@]2(C)O[C@@]3(O)[C@@H]4CCCN4C(=O)[C@H](Cc4ccccc4)N3C2=O)C=C2c3cccc4[nH]cc(c34)C[C@H]21 [ergotamine],potently activate
5,CCNC(C)Cc1cccc(C(F)(F)F)c1 (stereo not drawn) [Fenfluramine],potently activate

# Target: 5-HT2B receptors (Homo sapiens, UniProt P41595)
# Experiment: 5-HT2B functional assays at the PDSP
# Type: cell-based
# Conditions: among the 9 5-HT2B ligands
# 5-HT2B receptors, sequence (P41595 whole entry): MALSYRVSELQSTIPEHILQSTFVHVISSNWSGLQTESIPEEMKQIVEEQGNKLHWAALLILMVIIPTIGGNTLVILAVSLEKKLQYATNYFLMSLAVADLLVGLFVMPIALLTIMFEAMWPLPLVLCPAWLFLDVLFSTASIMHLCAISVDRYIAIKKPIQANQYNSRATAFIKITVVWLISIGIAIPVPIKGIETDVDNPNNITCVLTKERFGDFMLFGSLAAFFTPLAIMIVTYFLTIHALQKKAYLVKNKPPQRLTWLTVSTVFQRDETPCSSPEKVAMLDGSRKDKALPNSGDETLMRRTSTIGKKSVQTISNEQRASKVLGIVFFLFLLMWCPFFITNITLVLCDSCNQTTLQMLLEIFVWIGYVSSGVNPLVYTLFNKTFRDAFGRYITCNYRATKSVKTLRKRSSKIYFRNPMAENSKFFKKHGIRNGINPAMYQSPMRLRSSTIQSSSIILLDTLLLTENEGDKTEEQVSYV
row,Compound,agonist activity in 5-HT2B functional assays
1,"CC[C@@H](CO)NC(=O)[C@@H]1C=C2c3cccc4[nH]cc(c34)C[C@H]2N(C)C1 [Compound 7, methylergometrine]",strong agonist activity
